Results reported in patent publication US10947188B2, “Small molecule ferroptosis inducers” (THE TRUSTEES OF COLUMBIA UNIVERSITY IN THE CITY OF NEW YORK, priority 2016, dated 2021).

Test system: HT-1080
Assay: Modulatory profiling: Alamar Blue viability, lethal compound cotreated with death modulator (EC50, AUC); for AUC HT.BHA: reference of the scale not given here; for AUC HT.EGTA: reference of the scale not given here
Format: cell-based
Design: AUC, modulator HT.3MA / AUC, modulator HT.ALLN / AUC HT.ATA / AUC HT.ActD / AUC HT.BHA / AUC HT.BHT / AUC HT.BocD / AUC HT.CHX / AUC HT.Co2+ / AUC HT.DPQ / AUC HT.EGTA / AUC HT.Lmim / AUC HT.NAD+ / AUC HT.Nec-1 / AUC HT.SP600125 / AUC HT.TLCK / AUC HT.U0126: unit not given beside the values
Settings: for AUC HT.ATA: HT-1080, modulator ATA; for AUC HT.ActD: HT-1080, modulator ActD; for AUC HT.BHA: HT-1080, modulator BHA; for AUC HT.BHT: HT-1080, modulator BHT; for AUC HT.BocD: HT-1080, modulator BocD; for AUC HT.CHX: HT-1080, modulator CHX; for AUC HT.Co2+: HT-1080, modulator Co2+; for AUC HT.CspA: HT-1080, modulator CspA; for AUC HT.DPQ: HT-1080, modulator DPQ; for AUC HT.EGTA: HT-1080, modulator EGTA; for AUC HT.Gd3+: HT-1080, modulator Gd3+; for AUC HT.LNAME: HT-1080, modulator LNAME; for AUC HT.Lmim: HT-1080, modulator Lmim; for AUC HT.NAD+: HT-1080, modulator NAD+; for AUC HT.NMMA: HT-1080, modulator NMMA; for HT.atoc (AUC) / HT.bCarotene (AUC) / HT.deferox (AUC) / HT.digoxin (AUC) / HT.trolox (AUC) / HT.zVAD (AUC) / EC50: HT-1080; for HT.atoc (AUC): modulator atoc; for HT.bCarotene (AUC): modulator bCarotene; for HT.deferox (AUC): modulator deferox; for HT.digoxin (AUC): modulator digoxin; for HT.trolox (AUC): modulator trolox; for HT.zVAD (AUC): modulator zVAD; for AUC, modulator HT.3MA / AUC, modulator HT.ALLN: HT-1080 cells, modulatory profile value (AUC); for AUC, modulator HT.3MA: lethal compound cotreated with modulator 3MA; for AUC, modulator HT.ALLN: lethal compound cotreated with modulator ALLN; for effect of ferroptosis inhibitors (iron chelators and lipophilic antioxidants) on lethality in modulatory profiling: HT-1080 and BJeLR; for EC50: Homo sapiens, HT-1080, 48 h, 48 h
[1] = cotreated with antioxidant Atoc
[2] = cotreated with antioxidant Trolox
[3] = cotreated with iron-chelator Deferoxamine
[4] = cotreated with iron-chelator Lmim

CCc1ccc(/C=C2/SC(=O)N(CCC(C)NCCCN3CCOCC3)C2=O)cc1 (stereo not shown) [CIL46]
AUC HT.ATA: 0.0162 | AUC HT.ActD: −0.02916 | AUC HT.BHA: −0.1015 | AUC HT.BHT: −0.1471 | AUC HT.BocD: −0.04371 | AUC HT.CHX: −0.01909 | AUC HT.Co2+: −0.1082 | AUC HT.CspA: 0.0003356 | AUC HT.DPQ: −0.001692 | AUC HT.EGTA: −0.01699 | AUC HT.Gd3+: −0.008617 | AUC HT.LNAME: −0.02805 | AUC HT.Lmim: −0.03166 | AUC HT.NAD+: −0.06754 | AUC HT.NMMA: 0.001557 | HT.atoc (AUC): 0.04736 | HT.bCarotene (AUC): −0.01026 | HT.deferox (AUC): 0.03467 | HT.digoxin (AUC): −0.04671 | HT.trolox (AUC): −0.0145 | HT.zVAD (AUC): 0.01724 | AUC, modulator HT.3MA: 0.08624 | AUC, modulator HT.ALLN: 0.03767

COc1ccc(-n2nnnc2S(=O)(=O)CC(=O)N2CCCCC2)cc1 [CIL48]
AUC HT.ATA: 0.04684 | AUC HT.ActD: 0.01673 | AUC HT.BHA: −0.06966 | AUC HT.BHT: −0.1547 | AUC HT.BocD: −0.03823 | AUC HT.CHX: 0.0148 | AUC HT.Co2+: 0.0307 | AUC HT.CspA: 0.002689 | AUC HT.DPQ: −0.0003728 | AUC HT.EGTA: 0.01715 | AUC HT.Gd3+: −0.003556 | AUC HT.LNAME: −0.04087 | AUC HT.Lmim: −0.01757 | AUC HT.NAD+: −0.05465 | AUC HT.NMMA: −0.01902 | HT.atoc (AUC): 0.09021 | HT.bCarotene (AUC): −0.00845 | HT.deferox (AUC): 0.1268 | HT.digoxin (AUC): −0.01513 | HT.trolox (AUC): −0.02612 | HT.zVAD (AUC): −0.005053 | AUC, modulator HT.3MA: 0.0854 | AUC, modulator HT.ALLN: 0.1611

O=S(=O)(c1ccc2c(c1)C(=NO)c1cc(S(=O)(=O)N3CCCCC3)ccc1-2)N1CCCCC1 [CIL56, 2,7-bis(piperidin-1-ylsulfonyl)-9H-fluoren-9-one oxime]
AUC HT.ATA: −0.01939 | AUC HT.ActD: −0.124 | AUC HT.BHA: 0.1774 | AUC HT.BHT: 0.0146 | AUC HT.BocD: −0.0127 | AUC HT.CHX: −0.07234 | AUC HT.Co2+: 0.01296 | AUC HT.CspA: 0.01564 | AUC HT.DPQ: 0.06245 | AUC HT.EGTA: 0.02378 | AUC HT.Gd3+: −0.01542 | AUC HT.LNAME: 0.05375 | AUC HT.Lmim: 0.1017 | AUC HT.NAD+: 0.02315 | AUC HT.NMMA: −0.01475 | HT.atoc (AUC): 0.2436 | HT.bCarotene (AUC): 0.05423 | HT.deferox (AUC): 0.1269 | HT.digoxin (AUC): −0.1402 | HT.trolox (AUC): 0.1421 | HT.zVAD (AUC): 0.03666 | effect of ferroptosis inhibitors (iron chelators and lipophilic antioxidants) on lethality in modulatory profiling: suppression by canonical ferroptosis inhibitors | EC50 (DMSO): 0.443 µM | EC50 (cotreated with MEK inh U0126): 2.81 µM | EC50 [1]: 2.49 µM | EC50 (cotreated with antioxidant BHA): 2.65 µM | EC50 (cotreated with antioxidant BHT): 1.69 µM | EC50 [2]: 1.31 µM | EC50 [3]: 1.36 µM | EC50 [4]: 1.53 µM

O=C(CCl)N(c1ccccc1)c1c[nH]c2ccccc12 [CIL69]
AUC HT.ATA: −0.005358 | AUC HT.ActD: −0.004265 | AUC HT.BHA: 0.2489 | AUC HT.BHT: 0.2227 | AUC HT.BocD: −0.03457 | AUC HT.CHX: 0.03395 | AUC HT.Co2+: 0.07132 | AUC HT.CspA: 0.009848 | AUC HT.DPQ: −0.006588 | AUC HT.EGTA: 0.06032 | AUC HT.Gd3+: −0.01446 | AUC HT.LNAME: −0.04538 | AUC HT.Lmim: 0.1792 | AUC HT.NAD+: 0.03637 | AUC HT.NMMA: −0.04048 | HT.atoc (AUC): 0.3456 | HT.bCarotene (AUC): −0.0167 | HT.deferox (AUC): 0.3005 | HT.digoxin (AUC): −0.0261 | HT.trolox (AUC): 0.2631 | HT.zVAD (AUC): −0.0004734 | effect of ferroptosis inhibitors (iron chelators and lipophilic antioxidants) on lethality in modulatory profiling: suppression by canonical ferroptosis inhibitors | EC50 (DMSO): 0.551 µM | EC50 (cotreated with MEK inh U0126): 5.75 µM | EC50 [1]: 6.13 µM | EC50 (cotreated with antioxidant BHA): 4.79 µM | EC50 (cotreated with antioxidant BHT): 3.28 µM | EC50 [2]: 4.26 µM | EC50 [3]: 9.29 µM | EC50 [4]: 4.79 µM

COC(=O)[C@@H]1Cc2c([nH]c3ccccc23)C(C)(C)N1C(=O)CCl [CIL79]
AUC HT.ATA: −0.05302 | AUC HT.ActD: −0.04021 | AUC HT.BHA: 0.3909 | AUC HT.BHT: 0.3644 | AUC HT.BocD: −0.002385 | AUC HT.CHX: 0.02794 | AUC HT.Co2+: 0.2948 | AUC HT.CspA: −0.03389 | AUC HT.DPQ: 0.04764 | AUC HT.EGTA: 0.02262 | AUC HT.Gd3+: −0.02579 | AUC HT.LNAME: 0.01224 | AUC HT.Lmim: 0.4052 | AUC HT.NAD+: −0.004292 | AUC HT.NMMA: 0.003194 | HT.atoc (AUC): 0.4488 | HT.bCarotene (AUC): 0.005675 | HT.deferox (AUC): 0.5494 | HT.digoxin (AUC): −0.0705 | HT.trolox (AUC): 0.4225 | HT.zVAD (AUC): 0.003682 | effect of ferroptosis inhibitors (iron chelators and lipophilic antioxidants) on lethality in modulatory profiling: suppression by canonical ferroptosis inhibitors | EC50 (DMSO): 0.271 µM | EC50 (cotreated with MEK inh U0126): 14.3 µM | EC50 [1]: 11.7 µM | EC50 (cotreated with antioxidant BHA): 10.1 µM | EC50 (cotreated with antioxidant BHT): 6.3 µM | EC50 [2]: 10.2 µM | EC50 [3]: 32.4 µM | EC50 [4]: 12 µM
